US20260070886A1, “QUINOLINE PIPERAZINE DERIVATIVES, PHARMACEUTICAL COMPOSITION AND USES THEREOF” (priority 2022, published 2026)

Assays:
Format in all cases: cell-based
[1] = test system: NCI-H-460 cells; assay: Cell cytotoxicity assay, NCI-H-460 cells; settings: Homo sapiens, NCI-H460, 72 hours, percent cytotoxicity against DMSO control; for cytotoxicity at 1 µM: 1 μM compound, read-out: Cell toxicity NCI-H-460 cells 1 μM; for cytotoxicity at 10 µM: 10 μM compound, read-out: Cell toxicity NCI-H-460 cells 10 μM
Text: (§1) The following human derived non-small cell lung cancer cell lines were used to test the efficiency of the compounds to cause cell death and assess the anti-cancer properties of said compounds: 1. A549 cells: adenocarcinomic human alveolar basal epithelial cells; these cells are used as models for the study of lung cancer and the development of drug therapies against it • 2. NCI-H-460 cells are also human lung cancer cells, and • 3. NCI-H-522 cells are also human lung cancer cells.
(§2) 500 cells/well/30 μL were seeded in a 384 well cell culture plate. Incubated over night at 37° C., 5% CO2 in cell culture incubator. 10 μL of 4× compound was added to the plates, and incubated for 72 hours at 37° C., 5% CO2 in cell culture incubator. Assay DMSO control were included for 0% cytotoxicity control. Assay was terminated by addition of 10 μL of the reagent CTG 2.0 detection reagent #G9242. Plates were incubated for 20 minute incubation at room temperature with shaking Plate were read in Envision. Ultrasensitive luminescence and data was analyzed and percent cytotoxicity of compounds was determined against DMSO control.
(§3) All the compounds, A1-A116, were tested for cell toxicity using said non-small cell lung cancer cell lines using the above described method.

[2] = test system: Non-small cell lung cancer cell lines; assay: Cell toxicity assay, overall statement; settings: summary in words of Table 6
Text: as §1, §2, §3
These selected derivatives of Formula A were further tested to confirm their efficiency as anti-cancer compounds.

[3] = test system: NCI-H-522 cells; assay: Cell cytotoxicity assay, NCI-H-522 cells; settings: Homo sapiens, NCI-H522, 72 hours, percent cytotoxicity against DMSO control; for cytotoxicity at 1 µM: 1 μM compound, read-out: Cell toxicity NCI-H-522 cells 1 μM; for cytotoxicity at 10 µM: 10 μM compound, read-out: Cell toxicity NCI-H-522 cells 10 μM
Text: as §1, §2, §3

[4] = test system: A549 cells; assay: Cell cytotoxicity assay, A549 cells; settings: Homo sapiens, 72 hours, percent cytotoxicity against DMSO control; for cytotoxicity at 1 µM: 1 μM compound, read-out: Cell toxicity A549 cells 1 μM; for cytotoxicity at 10 µM: 10 μM compound, read-out: Cell toxicity A549 cells 10 μM
Text: as §1, §2, §3

Structure (SMILES)	cytotoxicity at 1 µM [1] [%]	cytotoxicity at 10 µM [1] [%]	activity against Non-small cell lung cancer (cell toxicity) [2]	cytotoxicity at 1 µM [3] [%]	cytotoxicity at 10 µM [3] [%]	cytotoxicity at 1 µM [4] [%]	cytotoxicity at 10 µM [4] [%]
COc1cc(Nc2nc(N3CCN(c4ccnc5cc(Cl)ccc45)CC3)cc(C(F)(F)F)n2)cc(C(F)(F)F)c1 [Compound A6, 4-(4-(7-chloroquinolin-4-yl)piperazin-1-yl)-N-(3-methoxy-5-(trifluoromethyl)phenyl)-6-(trifluoromethyl)pyrimidin-2-amine]	-7	-1	active	7	21	15	4
COc1cc(Nc2nc(N3CCN(c4ncnc5ccccc45)CC3)cc(C(F)(F)F)n2)cc(OC)c1 [Compound A47, N-(3,5-dimethoxyphenyl)-4-(4-(quinazolin-4-yl)piperazin-1-yl)-6-(trifluoromethyl)pyrimidin-2-amine]	4	12	active	45	43	38	44
FC(F)(F)c1cc(N2CCN(c3ccnc4cc(Cl)ccc34)CC2)nc(Nc2ccccc2)n1 [Compound A40, 4-(4-(7-chloroquinolin-4-yl)piperazin-1-yl)-N-phenyl-6-(trifluoromethyl)pyrimidin-2-amine]	-12	-7	active	6	11	15	8
FC(F)(F)c1cc(N2CCN(c3ccnc4cc(Cl)ccc34)CC2)nc(Nc2ccncc2)n1 [Compound A36, 4-(4-(7-chloroquinolin-4-yl)piperazin-1-yl)-N-(pyridin-4-yl)-6-(trifluoromethyl)pyrimidin-2-amine]	-11	98	active	2	72	0	99
COc1cc(Nc2nccc(N3CCN(c4ccnc5cc(Cl)ccc45)CC3)n2)cc(OC)c1 [Compound A41, 4-(4-(7-chloroquinolin-4-yl)piperazin-1-yl)-N-(3,5-dimethoxyphenyl)pyrimidin-2-amine]	2	28	active	7	56	23	42
Cc1cc(N2CCN(c3ccnc4cc(Cl)ccc34)CC2)nc(N2CCCCC2)n1 [Compound A12, 7-chloro-4-(4-(6-methyl-2-(piperidin-1-yl)pyrimidin-4-yl)piperazin-1-yl)quinoline]	-9	99	active	5	99	10	99
FC(F)(F)c1cc(N2CCN(c3ccnc4cc(Cl)ccc34)CC2)nc(N2CCCC2)n1 [Compound A19, 7-chloro-4-(4-(2-(pyrrolidin-1-yl)-6-(trifluoromethyl)pyrimidin-4-yl)piperazin-1-yl)quinoline]	-8	45	active	11	48	25	87
FC(F)(F)c1cc(N2CCN(c3ccnc4cc(Cl)ccc34)CC2)nc(N2CCOCC2)n1 [Compound A24, 4-(4-(4-(7-chloroquinolin-4-yl)piperazin-1-yl)-6-(trifluoromethyl)pyrimidin-2-yl)morpholine]	-9	-6	active	0	8	-1	22
Cc1cc(N2CCN(c3ccnc4cc(Cl)ccc34)CC2)nc(N2CCCC2)n1 [Compound A11, 7-chloro-4-(4-(6-methyl-2-(pyrrolidin-1-yl)pyrimidin-4-yl)piperazin-1-yl)quinoline]	-12	-4	active	2	9	16	10
COc1cc(F)cc(Nc2nc(C)cc(N3CCN(c4ccnc5cc(Cl)ccc45)CC3)n2)c1 [Compound A5, 4-(4-(7-chloroquinolin-4-yl)piperazin-1-yl)-N-(3-fluoro-5-methoxyphenyl)-6-methylpyrimidin-2-amine]	-8	7	active	6	22	24	5
FC(F)(F)c1cc(N2CCN(c3ccnc4cc(Cl)ccc34)CC2)nc(N2CCCCC2)n1 [Compound A20, 7-chloro-4-(4-(2-(piperidin-1-yl)-6-(trifluoromethyl)pyrimidin-4-yl)piperazin-1-yl)quinoline]	-10	60	active	8	43	37	89
COc1cc(Nc2nc(C)cc(N3CCN(c4ncnc5ccccc45)CC3)n2)cc(OC)c1 [Compound A46, N-(3,5-dimethoxyphenyl)-4-methyl-6-(4-(quinazolin-4-yl)piperazin-1-yl)pyrimidin-2-amine]	-2	44	active	2	66	25	98
Fc1cccc(F)c1Nc1nc(N2CCN(c3ccnc4cc(Cl)ccc34)CC2)cc(C(F)(F)F)n1 [Compound A33, 4-(4-(7-chloroquinolin-4-yl)piperazin-1-yl)-N-(2,6-difluorophenyl)-6-(trifluoromethyl)pyrimidin-2-amine]	-9	3	active	2	17	8	-8
FC(F)(F)c1cc(N2CCN(c3ccnc4cc(Cl)ccc34)CC2)nc(N2CCCCCC2)n1 [Compound A21, 4-(4-(2-(azepan-1-yl)-6-(trifluoromethyl)pyrimidin-4-yl)piperazin-1-yl)-7-chloroquinoline]	-15	-8	active	1	9	13	23
COc1cc(Nc2nc(C)cc(N3CCN(c4ccnc5cc(Cl)ccc45)CC3)n2)cc(C(F)(F)F)c1 [Compound A2, 4-(4-(7-chloroquinolin-4-yl)piperazin-1-yl)-N-(3-methoxy-5-(trifluoromethyl)phenyl)-6-methylpyrimidin-2-amine]	-8	-3	active	4	14	9	1
Cc1cc(N2CCN(c3ccnc4cc(Cl)ccc34)CC2)nc(Nc2ccccc2)n1 [Compound A39, 4-(4-(7-chloroquinolin-4-yl)piperazin-1-yl)-6-methyl-N-phenylpyrimidin-2-amine]	-11	-4	active	1	15	4	18
